Results from the CheMixHub ionic liquid set.

Test: xn = mol fraction of the nth substance listed

CCCC[n+]1ccn(C)c1.F[B-](F)(F)F + CC(C)=O
Details | electrical conductivity [S/m] | viscosity [mPa·s]
296.15 K, 101 kPa, x2 = 0 | 0.35 | –
296.15 K, 101 kPa, x2 = 0.3019 | 2.03 | –
296.15 K, 101 kPa, x2 = 0.6252 | 2.89 | –
296.15 K, 101 kPa, x2 = 0.7956 | 3.5 | –
296.15 K, 101 kPa, x2 = 0.8537 | 3.61 | –
296.15 K, 101 kPa, x2 = 0.9008 | 3.71 | –
296.15 K, 101 kPa, x2 = 0.9396 | 2.92 | –
296.15 K, 101 kPa, x2 = 0.9722 | 1.66 | –
298.15 K, 101 kPa, x2 = 0 | 0.194 | 116
298.15 K, 101 kPa, x2 = 0.0973 | 0.311 | 78
298.15 K, 101 kPa, x2 = 0.1863 | 0.44 | 53.3
298.15 K, 101 kPa, x2 = 0.2878 | 0.623 | 34.2
298.15 K, 101 kPa, x2 = 0.3877 | 0.87 | 21.4
298.15 K, 101 kPa, x2 = 0.4853 | 1.18 | 12.9
298.15 K, 101 kPa, x2 = 0.5858 | 1.61 | 7.39
298.15 K, 101 kPa, x2 = 0.6762 | 1.98 | 4.24
298.15 K, 101 kPa, x2 = 0.8151 | 2.2 | 1.61
303.15 K, 100 kPa, x1 = 0.0999 | – | 0.726
303.15 K, 100 kPa, x1 = 0.2 | – | 1.48
303.15 K, 100 kPa, x1 = 0.3002 | – | 2.789
303.15 K, 100 kPa, x1 = 0.4003 | – | 4.968
303.15 K, 100 kPa, x1 = 0.4996 | – | 8.387
303.15 K, 100 kPa, x1 = 0.6008 | – | 14.14
303.15 K, 100 kPa, x1 = 0.7006 | – | 22.8
303.15 K, 100 kPa, x1 = 0.7995 | – | 35.07
303.15 K, 100 kPa, x1 = 0.9 | – | 54.72
303.15 K, 100 kPa, x1 = 1 | – | 85.4
313.15 K, 100 kPa, x1 = 0.0999 | – | 0.654
313.15 K, 100 kPa, x1 = 0.2 | – | 1.3
313.15 K, 100 kPa, x1 = 0.3002 | – | 2.394
313.15 K, 100 kPa, x1 = 0.4003 | – | 4.185
313.15 K, 100 kPa, x1 = 0.4996 | – | 6.706
313.15 K, 100 kPa, x1 = 0.6008 | – | 10.83
313.15 K, 100 kPa, x1 = 0.7006 | – | 16.72
313.15 K, 100 kPa, x1 = 0.7995 | – | 24.44
313.15 K, 100 kPa, x1 = 0.9 | – | 36.14
313.15 K, 100 kPa, x1 = 1 | – | 53.84
323.15 K, 100 kPa, x1 = 0.0999 | – | 0.595
323.15 K, 100 kPa, x1 = 0.2 | – | 1.171
323.15 K, 100 kPa, x1 = 0.3002 | – | 2.094
323.15 K, 100 kPa, x1 = 0.4003 | – | 3.567
323.15 K, 100 kPa, x1 = 0.4996 | – | 5.516
323.15 K, 100 kPa, x1 = 0.6008 | – | 8.67
323.15 K, 100 kPa, x1 = 0.7006 | – | 12.67
323.15 K, 100 kPa, x1 = 0.7995 | – | 17.99
323.15 K, 100 kPa, x1 = 0.9 | – | 25.35
323.15 K, 100 kPa, x1 = 1 | – | 36.27

O + CCCCCCCCCCCCCCCC[n+]1ccccc1.O=C([O-])C(O)c1ccccc1 + CC(C)[C@H](N)C(=O)O
101 kPa, x2 = 0, x3 = 0
Details | electrical conductivity [S/m]
293.15 K | 0.00012
298.15 K | 0.00015
303.15 K | 0.00016
308.15 K | 0.00017
313.15 K | 0.00019

CCCCCCCCO + CCCC[n+]1ccn(C)c1.O=S(=O)([N-]S(=O)(=O)C(F)(F)F)C(F)(F)F
100 kPa
Details | electrical conductivity, x2 = 0.03335 [S/m] | viscosity, x2 = 0 [mPa·s] | viscosity, x2 = 0.8499 [mPa·s] | viscosity, x2 = 0.8986 [mPa·s]
294.5 K | 0.02 | – | – | –
298 K | – | 7.614 | 37.77 | 40.18

CCCOCCO + COS(=O)(=O)[O-].Cn1cc[n+](C)c1
viscosity [mPa·s], 101 kPa
Details | x2 = 0.00104 | x2 = 0.002597 | x2 = 0.004149 | x2 = 0.005696 | x2 = 0.007238 | x2 = 0.008775
293.15 K | 2.6 | 2.63 | 2.65 | 2.67 | 2.7 | 2.73
303.15 K | 2.15 | 2.18 | 2.21 | 2.24 | 2.27 | 2.29
313.15 K | 1.81 | 1.84 | 1.88 | 1.91 | 1.95 | 1.99

CCCC[n+]1ccn(C)c1.F[B-](F)(F)F + CNC(C)=O
Details | viscosity [mPa·s]
293.15 K, 101 kPa, x1 = 1 | 127.6

O + CCCCCCCCCCCCCCCC[n+]1ccccc1.O=C([O-])C(O)c1ccccc1 + C[C@H](N)C(=O)O
101 kPa, x2 = 0, x3 = 0
Details | electrical conductivity [S/m]
293.15 K | 0.00012
298.15 K | 0.00015
303.15 K | 0.00016
308.15 K | 0.00017
313.15 K | 0.00019

O + CCCCCCCCCCCCCCCC[n+]1ccccc1.O=C([O-])C(O)c1ccccc1
101 kPa, x2 = 0
Details | electrical conductivity [S/m]
293.15 K | 0.00012
298.15 K | 0.00015
303.15 K | 0.00016
308.15 K | 0.00017
313.15 K | 0.00019

[Br][Al]([Br])[Br] + CC[n+]1ccn(C)c1.[Br-]
Details | electrical conductivity [S/m]
298.15 K, 101.3 kPa, x1 = 0.35 | 0.625

CC1COC(=O)O1 (stereo not given) + CCCCn1cc[n+](C)c1C.O=S(=O)([N-]S(=O)(=O)C(F)(F)F)C(F)(F)F
101.3 kPa, x2 = 0
Details | viscosity [mPa·s]
288.15 K | 3.063
293.15 K | 2.746
343.15 K | 1.213

CCCC[N+]1(C)CCCC1.N#C[N-]C#N + CCCC[N+]1(C)CCCC1.O=S(=O)([N-]S(=O)(=O)C(F)(F)F)C(F)(F)F + O=S(=O)([N-]S(=O)(=O)C(F)(F)F)C(F)(F)F.[Li+]
electrical conductivity [S/m], 101 kPa, frequency 0 MHz
Details | 298 K | 303 K | 308 K | 313 K | 318 K | 323 K
x2 = 0.475, x1 = 0.475 | 0.481 | 0.572 | 0.67 | 0.788 | 0.912 | 1.05
x2 = 0.5, x1 = 0.5 | 0.565 | 0.642 | 0.746 | 0.857 | 0.962 | 1.12

viscosity [mPa·s], 101 kPa
Details | 298 K | 303 K | 308 K | 313 K | 318 K | 323 K | 328 K
x2 = 0.475, x1 = 0.475 | 60.7 | 51.9 | 42.6 | 35.9 | 31.2 | 27.6 | 24.2
x2 = 0.5, x1 = 0.5 | 51.3 | – | 32 | 26.7 | 22.7 | 19.7 | 17.06

CCCC[n+]1ccn(C)c1.F[B-](F)(F)F + ClCCl
298.15 K, 101 kPa, x2 = 0
Details | electrical conductivity [S/m] | viscosity [mPa·s]
– | 0.194 | 116

CCCC[n+]1ccn(C)c1.F[B-](F)(F)F + CC(=O)c1ccccc1
100 kPa, x2 = 0
Details | viscosity [mPa·s]
293.15 K | 133
303.15 K | 77
313.15 K | 49.1
323.15 K | 33
333.15 K | 23.3
